{
  "source": "patent US4454126A",
  "about": "“Phosphoramide derivatives and medicines containing the same” (priority 1981, dated 1984)",
  "key": {"Jack bean urease": {"target": "T1, Jack bean urease (Canavalia ensiformis, UniProt P07374)", "T1 construct": "Urease extracted from Jack beans and then purified; from tissue; host or cells: Jack beans", "T1 sequence (P07374 whole entry, looked up)": "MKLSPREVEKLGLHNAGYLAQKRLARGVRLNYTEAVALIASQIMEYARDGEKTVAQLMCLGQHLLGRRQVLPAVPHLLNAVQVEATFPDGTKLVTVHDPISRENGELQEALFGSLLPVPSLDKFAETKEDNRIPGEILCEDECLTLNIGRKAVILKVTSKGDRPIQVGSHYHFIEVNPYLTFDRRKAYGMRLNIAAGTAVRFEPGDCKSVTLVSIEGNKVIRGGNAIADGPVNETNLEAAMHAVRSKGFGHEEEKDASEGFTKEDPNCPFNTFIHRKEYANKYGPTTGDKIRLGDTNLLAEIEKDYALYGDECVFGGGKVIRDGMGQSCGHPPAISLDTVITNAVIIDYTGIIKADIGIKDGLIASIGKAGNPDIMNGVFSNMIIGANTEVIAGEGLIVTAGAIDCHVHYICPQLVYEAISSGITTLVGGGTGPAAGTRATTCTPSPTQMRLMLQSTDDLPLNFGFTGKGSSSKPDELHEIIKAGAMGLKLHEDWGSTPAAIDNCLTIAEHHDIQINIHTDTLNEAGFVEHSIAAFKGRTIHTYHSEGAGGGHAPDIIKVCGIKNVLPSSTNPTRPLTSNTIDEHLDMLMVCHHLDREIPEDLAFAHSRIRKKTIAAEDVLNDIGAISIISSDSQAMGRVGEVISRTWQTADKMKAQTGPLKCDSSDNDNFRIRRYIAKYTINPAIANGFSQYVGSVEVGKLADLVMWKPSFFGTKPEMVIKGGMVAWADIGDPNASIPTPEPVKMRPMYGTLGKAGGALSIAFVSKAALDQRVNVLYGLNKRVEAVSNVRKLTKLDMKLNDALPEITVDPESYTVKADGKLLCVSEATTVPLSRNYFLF", "test": "Urease inhibition effects - Jack bean urease", "assay_type": "biochemical, Jack beans", "conditions": "read-out: 50% Urease inhibition conc. I50", "protocol": "(§1) Urease extracted from Jack beans and then purified and urease produced by Proteus mirabilis were used. The molar concentration of the test compound that inhibited 50% of the urease present was determined by the method of Kobashi et al, Biochim. Biophys. Acta, 227, 429-441 (1971), and the method of Okuda et al, Saishin Igaku (The Latest Medical Science) 21(3), 622-627 (1966)."}, "[1]": {"target": "T2, urease produced by Proteus mirabilis (Proteus mirabilis, UniProt P17086)", "T2 construct": "intact Proteus mirabilis cells and cell-free preparation", "T2 sequence (P17086 whole entry)": "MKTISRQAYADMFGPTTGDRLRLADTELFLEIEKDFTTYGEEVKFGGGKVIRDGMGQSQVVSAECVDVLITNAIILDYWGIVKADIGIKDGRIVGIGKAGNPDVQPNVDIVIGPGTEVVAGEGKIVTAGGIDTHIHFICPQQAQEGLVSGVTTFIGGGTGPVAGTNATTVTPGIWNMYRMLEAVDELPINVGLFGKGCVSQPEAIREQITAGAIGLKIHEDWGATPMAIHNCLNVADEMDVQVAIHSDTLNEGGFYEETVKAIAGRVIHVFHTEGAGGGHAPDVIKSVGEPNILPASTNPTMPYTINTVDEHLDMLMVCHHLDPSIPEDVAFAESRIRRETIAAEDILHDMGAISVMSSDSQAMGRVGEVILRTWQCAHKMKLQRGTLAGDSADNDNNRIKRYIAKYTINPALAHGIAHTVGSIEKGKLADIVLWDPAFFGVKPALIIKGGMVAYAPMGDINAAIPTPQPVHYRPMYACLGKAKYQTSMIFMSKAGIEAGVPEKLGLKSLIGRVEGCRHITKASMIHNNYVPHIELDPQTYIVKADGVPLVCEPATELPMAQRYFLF", "T2 sequence (P17088 whole entry, further chain)": "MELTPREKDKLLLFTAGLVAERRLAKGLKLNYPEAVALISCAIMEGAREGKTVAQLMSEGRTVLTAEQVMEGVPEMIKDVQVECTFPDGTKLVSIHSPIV", "T2 sequence (P17087 whole entry, further chain)": "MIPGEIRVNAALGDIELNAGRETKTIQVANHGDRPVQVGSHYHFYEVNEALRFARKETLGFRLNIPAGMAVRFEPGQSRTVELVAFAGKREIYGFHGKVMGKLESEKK", "test": "Urease inhibition effects - Proteus mirabilis urease, intact cell", "assay_type": "cell-based", "conditions": "read-out: 50% Urease inhibition conc. I50", "protocol": "as §1"}, "[2]": {"target": "T2, urease produced by Proteus mirabilis", "test": "Urease inhibition effects - Proteus mirabilis urease, cell free", "assay_type": "biochemical", "conditions": "read-out: 50% Urease inhibition conc. I50", "protocol": "as §1"}, "[3]": {"test": "Rate of migration into urine", "conditions": "rat, in vivo, po; 50 mg/kg perorally, S.D. rats, urine excreted for 24 hrs; read-out: Rate of migration into urine, Average ± S.E.", "protocol": "50 mg/kg of a test compound was administered perorally to S.D. rats weighing around 200 g. The urease-inhibition capacity of urine excreted for 24 hrs. thereafter was measured. The rate of migration into urine of each test compound was determined by the method of Kobashi et al, Yakugaku Zasshi 93(12), 1564-1572 (1973) and J. Biochim. 83, 287-293 (1973)."}, "Proteus mirabilis": {"test_system": "Proteus mirabilis", "test": "Inhibition of the formation of vesical calculi in rats infected with Proteus mirabilis", "assay_type": "in vivo, Female S.D. rats", "conditions": "peroral, five days from four days after inoculation, none: 34.5 ± 2.6 mg", "source_text": "Female S.D. rats weighing about 200 g were inoculated with Proteus mirabilis in their bladders to cause infection. Four days after the inoculation peroral administration of a test compound was begun and the administration was continued for five days. The calculi formed in the bladder in each rat were weighed."}, "Acute toxicity": {"test": "Acute toxicity", "assay_type": "in vivo, S.D. rats", "conditions": "peroral; for LD50: rat, in vivo, po, in 0.5% carboxymethylcellulose", "source_text": "Acute toxicities of test compounds were examined by the peroral administration of the test compounds, suspended in 0.5% carboxymethylcellulose, to male and female S.D. rats (8 weeks old)."}},
  "data": [
    {"smiles": "CC(C)=CC(=O)NP(N)(N)=O", "note": "[Compound A, N-(diaminophosphinyl)-3-methyl-2-butenamide]", "values": [
      {"measurement": "IC50", "setting": "Jack bean urease", "result": 630, "unit": "nM"},
      {"measurement": "IC50", "setting": "[1]", "result": 18, "unit": "nM"},
      {"measurement": "IC50", "setting": "[2]", "result": 16, "unit": "nM"},
      {"measurement": "dose excreted at 24 h", "setting": "[3]", "result": "29.6 ± 2.1", "unit": "%"},
      {"measurement": "Weight of calculi (Average ± S.E.)", "setting": "Proteus mirabilis; 12.5 mg/kg per day", "result": "10.7 ± 3.9", "unit": "mg"},
      {"measurement": "Weight of calculi (Average ± S.E.)", "setting": "Proteus mirabilis; 50 mg/kg per day", "result": "10.9 ± 2.8", "unit": "mg"},
      {"measurement": "Acute toxicity, in words", "setting": "Acute toxicity; S.D. rats", "result": "only a very low toxitity"},
      {"measurement": "LD50", "setting": "Acute toxicity; female S.D. rats (8 weeks old)", "result": "> 4240", "unit": "mg/kg"},
      {"measurement": "LD50", "setting": "Acute toxicity; male S.D. rats (8 weeks old)", "result": "> 6000", "unit": "mg/kg"}
    ]},
    {"smiles": "CC(=CC(=O)NP(N)(N)=O)CCCC(C)C", "note": "[Compound B, N-(diaminophosphinyl)-3,7-dimethyl-2-octenamide]", "values": [
      {"measurement": "IC50", "setting": "Jack bean urease", "result": 5200, "unit": "nM"},
      {"measurement": "IC50", "setting": "[1]", "result": 15, "unit": "nM"},
      {"measurement": "IC50", "setting": "[2]", "result": 16, "unit": "nM"}
    ]},
    {"smiles": "CC(C)CC(=O)NP(N)(N)=O", "note": "[Compound C, N-(diaminophosphinyl)-3-methylbutanamide]", "values": [
      {"measurement": "IC50", "setting": "Jack bean urease", "result": 1600, "unit": "nM"},
      {"measurement": "IC50", "setting": "[1]", "result": 68, "unit": "nM"},
      {"measurement": "IC50", "setting": "[2]", "result": 61, "unit": "nM"}
    ]},
    {"smiles": "CC(C)CCCC(C)CC(=O)NP(N)(N)=O", "note": "(stereo not shown) [Compound D, N-(diaminophosphinyl)-3,7-dimethyloctanamide]", "values": [
      {"measurement": "IC50", "setting": "Jack bean urease", "result": 870, "unit": "nM"},
      {"measurement": "IC50", "setting": "[1]", "result": 14, "unit": "nM"}
    ]},
    {"smiles": "NP(N)(=O)NC(=O)c1ccccc1", "note": "[Control Compound, N-(diaminophosphinyl)benzamide, reference compound]", "values": [
      {"measurement": "IC50", "setting": "Jack bean urease", "result": 600, "unit": "nM"},
      {"measurement": "IC50", "setting": "[1]", "result": 18, "unit": "nM"},
      {"measurement": "IC50", "setting": "[2]", "result": 13, "unit": "nM"},
      {"measurement": "dose excreted at 24 h", "setting": "[3]", "result": "21 ± 2.7", "unit": "%"},
      {"measurement": "Weight of calculi (Average ± S.E.)", "setting": "Proteus mirabilis; 12.5 mg/kg per day", "result": "22.5 ± 4.0", "unit": "mg"}
    ]}
  ]
}
